Measured values: patent US4698354A, “4-methoxy-isophthalic acid derivative having a pharmacological activity in thromboembolic disorders” (Societa Italo-Brittanica L. Manetti-H. Roberts & Co., priority 1986, dated 1987)

Key:
[1] = system: Blood platelet aggregation from ADP; assay: Blood platelet anti-aggregate activity in vitro, ADP-induced aggregation, rabbit PRP; type: cell-based; conditions: Oryctolagus cuniculus, 10 min, 10 minutes incubation at 37° C., read-out: IC50 (50% decrease of maximum amplitude of aggregation curve)
From the text: (§1) The compound object of the present invention has been tested to ascertain the acute toxicity, bio-disponibility and interference with the blood platelet function in vitro and in vivo by carrying out tests in all cases in comparison with another molecule, picotamide monohydrate, which is included in the same class of products, and the pharmacological activity of which is already known (see German patent 3113150).
(§2) Platelet aggregation was induced in rabbit "platelet rich plasma" (PRP) by employing as aggregant agents adenosine diphosphate (ADP) and arachidonic acid (AANa) after incubation at 37° C. for 10 minutes with the compounds under test. The activity is expressed as the concentration able to decrease by 50% (IC50) the maximum amplitude (AM) of the aggregation curve so obtained, with respect to the aggregation curve as obtained with control plasmas incubated only with buffers.
(§3) The results of the tests effected with ADP and AANa are hereinafter referred: […]

[2] = system: Blood platelet aggregation from AANa; assay: Blood platelet anti-aggregate activity in vitro, arachidonic acid (AANa)-induced aggregation, rabbit PRP; type: cell-based; conditions: Oryctolagus cuniculus, 10 min, 10 minutes incubation at 37° C., read-out: IC50 (50% decrease of maximum amplitude of aggregation curve)
From the text: as §1, §2, §3

[3] = system: platelet aggregation induced by arachidonic acid; assay: Blood platelet anti-aggregant activity in vivo (arachidonic acid-induced aggregation in PRP of treated rabbits); design: species or system New Zealand rabbits; conditions: for ED50: Oryctolagus cuniculus, Platelet, 0.5 h, rabbit, gum acacia suspension, blood taken 30 minutes after treatment, arachidonic acid, read-out: ID50 (dose decreasing by 50% the maximum amplitude of the aggregation curve)
From the text: as §1
New Zealand rabbits which had been held fasting for twelve hours with water ad libitum, were administered with G 619 and picotamide monohydrate at various dosages in a gum acacia suspension. To the control rabbits only gum acacia was administered. After 30 minutes from treatment the animals were anaesthetized with sodium pentothal (30 mg/Kg i.v.) and blood was taken from the carotid artery, rendered incoagulable with sodium citrate at 3,8% and centrifuged at 1400 rpm for 15 minutes in order to obtain the platelet rich plasma (PRP). On said PRP the platelet aggregation was induced by arachidonic acid and the corresponding aggregation curve was recorded using a Born aggregometer. The activity is indicated as the dose able to decrease by 50% (ID50) the maximum amplitude (AM) of the aggregation curve of plasma of treated animals with respect to that of plasma from control animals, the following results being obtained: […]

[4] = Per os absorbtion in rat, plasma levels; type: in vivo; conditions: for concentration at 0.5 h: 1/2 h; for absorbtion, times higher than that of picotamide monohydrate: rat per os
From the text: as §1
Per os absorbtion tests have been carried out in rat after a sole administration of 100 mg/Kg in gum acacia suspension. The determinations of the blood levels of the two substances at various times have been effected on plasma using a high pressure liquid phase chromotograph and indicated as γ/ml. The values referred hereinafter represent the average of 8 determinations: […]

[5] = Acute toxicity (DL50), mouse; conditions: in vivo, sole administration, seven days observation
From the text: as §1
(§4) The compound of the present invention was subjected to acute toxicity tests on two animal species and two administration routes. The animals which are treated per os or endovenously in a sole administration, have been held under observation for seven days after treatment by recording the symptomatology and the number of deaths. The results, referred in the following table, are indicated as the dose which produces the death of 50% of the treated animals (DL50) calculated by statistical method: […]

[6] = Acute toxicity (DL50), rat; conditions: in vivo, sole administration, seven days observation
From the text: as §1, §4

[7] = system: platelet aggregation induced with ADP; assay: Blood platelet anti-aggregant activity in vitro on human PRP, ADP; type: cell-based; conditions: for IC50: Platelet, ADP, human PRP, ten minutes incubation at 37° C., read-out: IC50 (50% decrease of maximum amplitude of aggregation curve)
Experimental: (§5) The blood platelet anti-aggregant activity of G619 was studied in comparison with picotamide on human platelet rich plasma (PRP), wherein the platelet aggregation was induced with ADP, collagen, AANa and U46619 after incubation at 37° C. for ten minutes with the compounds under test. The results, indicated as a concentration able to decrease by 50% (IC50) the maximum amplitude of the aggregation curve obtained with control plasma incubated only with the buffer, are the following: […]

[8] = system: platelet aggregation induced with collagen; assay: Blood platelet anti-aggregant activity in vitro on human PRP, collagen; type: cell-based; conditions: ten minutes incubation at 37° C., read-out: IC50 (50% decrease of maximum amplitude of aggregation curve)
Experimental: as §5

[9] = system: platelet aggregation induced with AANa; assay: Blood platelet anti-aggregant activity in vitro on human PRP, AANa; type: cell-based; conditions: ten minutes incubation at 37° C., read-out: IC50 (50% decrease of maximum amplitude of aggregation curve)
Experimental: as §5

[10] = system: platelet aggregation induced with U46619; assay: Blood platelet anti-aggregant activity in vitro on human PRP, U46619; type: cell-based; conditions: ten minutes incubation at 37° C., read-out: IC50 (50% decrease of maximum amplitude of aggregation curve)
Experimental: as §5

[11] = system: production of thromboxane B2 (TxB2); assay: Production of thromboxane B2 (TxB2) in human PRP after stimulation with collagen; type: cell-based; conditions: collagen 1 μg/ml, TxB2 measured in ug/ml
Experimental: In order to investigate the mechanism of action of G619 the production of malondialdehyde (MDA) and thromboxane B2 (TxB2) after stimulation with collagen 1 μg/ml was measured on human PRP.

[12] = system: production of 6-keto-PGFla; assay: Production of 6-keto-PGFla in human PRP after stimulation with collagen; type: cell-based; conditions: collagen 1 ug/ml
Experimental: The production of 6-keto-PGFla was also measured after stimulation of human PRP with collagen 1 ug/ml.

[13] = system: platelet aggregation induced in PRP using ADP; assay: Blood platelet anti-aggregant activity on human volounteers (ADP-induced aggregation in PRP); type: in vivo; conditions: 500 mg sole dose per os; for percent inhibition of the aggregation curve: ADP 2×10^-6 M
Experimental: On healthy human volounteers of both sexes aging from 31 to 53 the blood anti-aggregant activity was evaluated by per os treatment at a 500 mg sole dose, taking the blood samples before treatment and after 1-2-4-6 hours. The platelet aggregation was induced in PRP using ADP as aggregant agent at a concentration of 2×10^-6 M following the method illustrated in example 2. The platelet anti-aggregant activity reported in quantitative terms in the following table, was calculated as percent inhibition of the aggregation curve after treatment with respect to the […]

[14] = in vivo, po, rat, 100 mg/Kg per os, gum acacia suspension, average of 8 determinations, read-out: blood level (plasma)

Structure (SMILES): COc1ccc(C(N)=O)cc1C(=O)NCc1cccnc1 [G 619, 3-carbamoyl(3'-picolyl)-4-methoxy-1-benzamide]
- IC50 [1]: 125 µM
- IC50 [2]: 26.9 µM
- ED50 [3]: 25 mg/kg
- activity, times higher than that of picotamide monohydrate ([3]; rabbit in vivo, ID50): about 3 times
- concentration at 0.5 h [4, 14]: 26900 ng/mL
- concentration at 1 h [4, 14]: 20200 ng/mL
- concentration at 2 h [4, 14]: 9400 ng/mL
- concentration at 4 h ([4]; in vivo, po, rat, 100 mg/Kg per os, gum acacia suspension, 4 h, average of 8 determinations, read-out: blood level (plasma)): 2100 ng/mL
- absorbtion, times higher than that of picotamide monohydrate ([4]; 1/2 hour): 8 times
- absorbtion, times higher than that of picotamide monohydrate ([4]; 2 hours): 19 times
- LD50 at 168 h ([5]; iv): 400 mg/kg
- LD50 at 168 h ([5]; po, os): > 3000 mg/kg
- LD50 at 168 h ([6]; iv): 450 mg/kg
- LD50 at 168 h ([6]; po, os): > 3000 mg/kg
- IC50 [7]: 56 µM
- power of action, factor higher with respect to picotamide ([7]; platelet aggregations induced in human PRP (ADP, collagen, AANa, U46619)): 10 factor
- IC50 [8]: 11 µM
- IC50 [9]: 4.2 µM
- IC50 [10]: 9.2 µM
- IC50 [11]: 4.6 µM
- activation at 1 µM ([12]; starting from concentrations of 10^-6 M, read-out: increase in the production of 6-keto-PGFla): 100 to 150%
- maximum activity (platelet anti-aggregant) ([13]; ADP): 53,8%
- time after treatment of maximum activity ([13]; ADP): two
- percent inhibition of the aggregation curve ([13]; 1 h): 38,2%
- percent inhibition of the aggregation curve ([13]; 2 h): 53,8%
- percent inhibition of the aggregation curve ([13]; 4 h): 43,4%
- percent inhibition of the aggregation curve ([13]; 6 h): 24,2%

Structure (SMILES): COc1ccc(C(=O)NCc2cccnc2)cc1C(=O)NCc1cccnc1 [Picotamide monohydrate, N-N'-bis-(3-picolyl)-4-methoxy-isophthalamide monohydrate, reference compound]
- IC50 [1]: 930 µM
- IC50 [2]: 79 µM
- ED50 [3]: 78 mg/kg
- concentration at 0.5 h [4, 14]: 3400 ng/mL
- concentration at 1 h [4, 14]: 1200 ng/mL
- concentration at 2 h [4, 14]: 500 ng/mL
- LD50 at 168 h ([5]; iv): 275 mg/kg
- LD50 at 168 h ([5]; po, os): 3000 mg/kg
- LD50 at 168 h ([6]; iv): 190 mg/kg
- LD50 at 168 h ([6]; po, os): 3000 mg/kg
- IC50 [7]: 820 µM
- IC50 [8]: 100 µM
- IC50 [9]: 89 µM
- IC50 [10]: 250 µM
- IC50 [11]: 10 µM
- effect on production of 6-keto-PGFla (in words) ([12]; 10^-6 M): hardly efficient
- maximum activity (platelet anti-aggregant) ([13]; ADP): 41,1%
- percent inhibition of the aggregation curve ([13]; 1 h): 18,2%
- percent inhibition of the aggregation curve ([13]; 2 h): 25,6%
- percent inhibition of the aggregation curve ([13]; 4 h): 41,1%
- percent inhibition of the aggregation curve ([13]; 6 h): 21,5%
